Key:
Assay in all cases: relative viability (nuclei count vs DMSO), 5 days (fraction); higher = more cells survive
[1] = test system: NCI-H650
Outline: (§1)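 Lung cancer cell lines in 1536-well plates were dosed by pin tool the day after seeding, either with one drug alone or with a fixed anchor-drug dose plus five library-drug doses (not always all listed) in √10 steps. After 5 days, cells were fixed and their nuclei stained in one step (final 0.05% Triton X-100, 1% formaldehyde, 1 ug/ml Hoechst), then counted on 4× images. Relative viability is the nuclei count in treated wells divided by that in vehicle wells. Values are medians of duplicate plates.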

[2] = test system: NCI-H23
Outline: as §1

[3] = test system: LOU-NH91
Outline: as §1

[4] = test system: NCI-H838
Outline: as §1

[5] = test system: NCI-H1395
Outline: as §1

[6] = test system: NCI-H2009
Outline: as §1

[7] = test system: NCI-H1666
Outline: as §1

[8] = test system: NCI-H727
Outline: as §1

[9] = test system: NCI-H596
Outline: as §1

[10] = test system: HARA
Outline: as §1

[11] = test system: NCI-H441
Outline: as §1

[12] = test system: LCLC-103H
Outline: as §1

[13] = test system: NCI-H2126
Outline: as §1

[14] = test system: EMC-BAC-2
Outline: as §1

[15] = test system: NCI-H2023
Outline: as §1

[16] = test system: NCI-H1993
Outline: as §1

[17] = test system: NCI-H3122
Outline: as §1

[18] = test system: NCI-H647
Outline: as §1

[19] = test system: HCC-44
Outline: as §1

[20] = test system: 201T
Outline: as §1

[21] = test system: NCI-H2347
Outline: as §1

[22] = test system: NCI-H2087
Outline: as §1

[23] = test system: BEN
Outline: as §1

## CC1(C)CCC(c2ccc(Cl)cc2)=C(CN2CCN(c3ccc(C(=O)NS(=O)(=O)c4ccc(N[C@H](CCN5CCOCC5)CSc5ccccc5)c(S(=O)(=O)C(F)(F)F)c4)cc3)CC2)C1 [Navitoclax] + Cc1nc(NC(=O)N2CCC[C@H]2C(N)=O)sc1-c1ccnc(C(C)(C)C(F)(F)F)c1 [Alpelisib] (partner 2 µM)
[1]; first compound 0.005 µM
  relative viability: 1.1
[1]; first compound 0.01581 µM
  relative viability: 1.15
[1]; first compound 0.05 µM
  relative viability: 1.15
[1]; first compound 0.1581 µM
  relative viability: 1.11
[1]; first compound 0.5 µM
  relative viability: 1.16
[2]; first compound 0.005 µM
  relative viability: 0.649
[2]; first compound 0.01581 µM
  relative viability: 0.679
[2]; first compound 0.05 µM
  relative viability: 0.676
[2]; first compound 0.1581 µM
  relative viability: 0.633
[2]; first compound 0.5 µM
  relative viability: 0.598
[3]; first compound 0.005 µM
  relative viability: 0.729
[3]; first compound 0.01581 µM
  relative viability: 0.809
[3]; first compound 0.05 µM
  relative viability: 0.69
[3]; first compound 0.1581 µM
  relative viability: 0.769
[3]; first compound 0.5 µM
  relative viability: 0.645
[4]; first compound 0.005 µM
  relative viability: 0.96
[4]; first compound 0.01581 µM
  relative viability: 1.1
[4]; first compound 0.05 µM
  relative viability: 1.12
[4]; first compound 0.1581 µM
  relative viability: 1.03
[4]; first compound 0.5 µM
  relative viability: 1.03
[5]; first compound 0.005 µM
  relative viability: 1.05
[5]; first compound 0.01581 µM
  relative viability: 1.26
[5]; first compound 0.05 µM
  relative viability: 1.2
[5]; first compound 0.1581 µM
  relative viability: 1.19
[5]; first compound 0.5 µM
  relative viability: 1.12
[6]; first compound 0.005 µM
  relative viability: 1.08
[6]; first compound 0.01581 µM
  relative viability: 1.16
[6]; first compound 0.05 µM
  relative viability: 1.15
[6]; first compound 0.1581 µM
  relative viability: 1.2
[6]; first compound 0.5 µM
  relative viability: 1.21
[7]; first compound 0.005 µM
  relative viability: 1.03
[7]; first compound 0.01581 µM
  relative viability: 0.944
[7]; first compound 0.05 µM
  relative viability: 1.06
[7]; first compound 0.1581 µM
  relative viability: 0.878
[7]; first compound 0.5 µM
  relative viability: 0.958
[8]; first compound 0.005 µM
  relative viability: 0.5
[8]; first compound 0.01581 µM
  relative viability: 0.619
[8]; first compound 0.1581 µM
  relative viability: 0.526
[8]; first compound 0.5 µM
  relative viability: 0.434
[9]; first compound 0.005 µM
  relative viability: 0.515
[9]; first compound 0.01581 µM
  relative viability: 0.481
[9]; first compound 0.05 µM
  relative viability: 0.399
[9]; first compound 0.1581 µM
  relative viability: 0.57
[9]; first compound 0.5 µM
  relative viability: 0.408
[10]; first compound 0.005 µM
  relative viability: 0.657
[10]; first compound 0.01581 µM
  relative viability: 1.05
[10]; first compound 0.05 µM
  relative viability: 0.622
[10]; first compound 0.1581 µM
  relative viability: 0.881
[10]; first compound 0.5 µM
  relative viability: 0.898
[11]; first compound 0.005 µM
  relative viability: 0.654
[11]; first compound 0.01581 µM
  relative viability: 0.901
[11]; first compound 0.05 µM
  relative viability: 0.852
[11]; first compound 0.1581 µM
  relative viability: 0.743
[11]; first compound 0.5 µM
  relative viability: 0.63
[12]; first compound 0.005 µM
  relative viability: 0.948
[12]; first compound 0.01581 µM
  relative viability: 1.13
[12]; first compound 0.05 µM
  relative viability: 0.97
[12]; first compound 0.1581 µM
  relative viability: 0.919
[12]; first compound 0.5 µM
  relative viability: 0.963
[13]; first compound 0.005 µM
  relative viability: 0.7
[13]; first compound 0.01581 µM
  relative viability: 0.764
[13]; first compound 0.05 µM
  relative viability: 0.757
[13]; first compound 0.1581 µM
  relative viability: 0.727
[13]; first compound 0.5 µM
  relative viability: 0.771
[14]; first compound 0.005 µM
  relative viability: 0.733
[14]; first compound 0.01581 µM
  relative viability: 0.764
[14]; first compound 0.05 µM
  relative viability: 0.745
[14]; first compound 0.1581 µM
  relative viability: 0.69
[14]; first compound 0.5 µM
  relative viability: 0.759
[15]; first compound 0.005 µM
  relative viability: 0.581
[15]; first compound 0.01581 µM
  relative viability: 0.696
[15]; first compound 0.05 µM
  relative viability: 0.586
[15]; first compound 0.1581 µM
  relative viability: 0.616
[15]; first compound 0.5 µM
  relative viability: 0.625
[16]; first compound 0.005 µM
  relative viability: 0.658
[16]; first compound 0.01581 µM
  relative viability: 0.732
[16]; first compound 0.05 µM
  relative viability: 0.682
[16]; first compound 0.1581 µM
  relative viability: 0.676
[16]; first compound 0.5 µM
  relative viability: 0.749
[17]; first compound 0.005 µM
  relative viability: 0.686
[17]; first compound 0.01581 µM
  relative viability: 0.8
[17]; first compound 0.05 µM
  relative viability: 0.726
[17]; first compound 0.1581 µM
  relative viability: 0.901
[17]; first compound 0.5 µM
  relative viability: 0.766
[18]; first compound 0.005 µM
  relative viability: 1.04
[18]; first compound 0.01581 µM
  relative viability: 1.35
[18]; first compound 0.05 µM
  relative viability: 1.48
[18]; first compound 0.1581 µM
  relative viability: 1.14
[18]; first compound 0.5 µM
  relative viability: 0.75
[19]; first compound 0.005 µM
  relative viability: 0.736
[19]; first compound 0.01581 µM
  relative viability: 0.805
[19]; first compound 0.05 µM
  relative viability: 0.849
[19]; first compound 0.1581 µM
  relative viability: 0.795
[19]; first compound 0.5 µM
  relative viability: 0.694
[20]; first compound 0.005 µM
  relative viability: 1.03
[20]; first compound 0.01581 µM
  relative viability: 1.04
[20]; first compound 0.05 µM
  relative viability: 1.02
[20]; first compound 0.1581 µM
  relative viability: 1
[20]; first compound 0.5 µM
  relative viability: 1.03
[21]; first compound 0.005 µM
  relative viability: 0.997
[21]; first compound 0.01581 µM
  relative viability: 1.07
[21]; first compound 0.05 µM
  relative viability: 1.08
[21]; first compound 0.1581 µM
  relative viability: 0.927
[21]; first compound 0.5 µM
  relative viability: 1.2
[22]; first compound 0.005 µM
  relative viability: 1.25
[22]; first compound 0.01581 µM
  relative viability: 1.17
[22]; first compound 0.05 µM
  relative viability: 1.03
[22]; first compound 0.1581 µM
  relative viability: 1.05
[22]; first compound 0.5 µM
  relative viability: 1.08
[23]; first compound 0.005 µM
  relative viability: 0.983
[23]; first compound 0.01581 µM
  relative viability: 1.13
[23]; first compound 0.05 µM
  relative viability: 1.02
[23]; first compound 0.1581 µM
  relative viability: 1.08
[23]; first compound 0.5 µM
  relative viability: 0.831

Source: the supplement of paper PMC10307832
